Test results taken from ChEMBL document CHEMBL5465560, “Selectivity Literature for EUbOPEN Chemogenomic Library” (2024).
One block for each compound: values may come before it.

Assays:
[1] = target: T1, Tyrosine-protein kinase ITK/TSK (Homo sapiens) (UniProt Q08881); assay: Selectivity interaction (Kinase panel (Z-LYTE Assay)) EUB0001632a ITK; details: at 10 µM
T1 sequence (whole entry): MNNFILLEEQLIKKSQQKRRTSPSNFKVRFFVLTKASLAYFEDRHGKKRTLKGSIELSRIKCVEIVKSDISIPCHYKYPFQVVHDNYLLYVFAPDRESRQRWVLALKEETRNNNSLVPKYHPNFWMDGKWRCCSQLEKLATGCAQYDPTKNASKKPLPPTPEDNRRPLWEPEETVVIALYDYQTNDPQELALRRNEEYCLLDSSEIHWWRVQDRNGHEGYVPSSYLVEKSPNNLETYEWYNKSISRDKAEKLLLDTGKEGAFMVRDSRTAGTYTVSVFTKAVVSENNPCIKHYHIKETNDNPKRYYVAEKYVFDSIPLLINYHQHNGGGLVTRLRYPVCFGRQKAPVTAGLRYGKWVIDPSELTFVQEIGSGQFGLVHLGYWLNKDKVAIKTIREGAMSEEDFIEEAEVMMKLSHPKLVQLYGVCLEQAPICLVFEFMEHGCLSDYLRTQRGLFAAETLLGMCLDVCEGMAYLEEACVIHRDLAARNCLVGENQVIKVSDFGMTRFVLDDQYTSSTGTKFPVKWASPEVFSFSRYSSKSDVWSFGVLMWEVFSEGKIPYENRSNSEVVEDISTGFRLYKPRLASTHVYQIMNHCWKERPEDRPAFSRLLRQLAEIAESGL

[2] = target: Hepatocyte growth factor receptor (Homo sapiens, UniProt P08581); assay: Selectivity interaction (Rxn Biology Kinase assay) EUB0001632a MET; details: at 10 µM
Hepatocyte growth factor receptor, sequence (P08581 whole entry): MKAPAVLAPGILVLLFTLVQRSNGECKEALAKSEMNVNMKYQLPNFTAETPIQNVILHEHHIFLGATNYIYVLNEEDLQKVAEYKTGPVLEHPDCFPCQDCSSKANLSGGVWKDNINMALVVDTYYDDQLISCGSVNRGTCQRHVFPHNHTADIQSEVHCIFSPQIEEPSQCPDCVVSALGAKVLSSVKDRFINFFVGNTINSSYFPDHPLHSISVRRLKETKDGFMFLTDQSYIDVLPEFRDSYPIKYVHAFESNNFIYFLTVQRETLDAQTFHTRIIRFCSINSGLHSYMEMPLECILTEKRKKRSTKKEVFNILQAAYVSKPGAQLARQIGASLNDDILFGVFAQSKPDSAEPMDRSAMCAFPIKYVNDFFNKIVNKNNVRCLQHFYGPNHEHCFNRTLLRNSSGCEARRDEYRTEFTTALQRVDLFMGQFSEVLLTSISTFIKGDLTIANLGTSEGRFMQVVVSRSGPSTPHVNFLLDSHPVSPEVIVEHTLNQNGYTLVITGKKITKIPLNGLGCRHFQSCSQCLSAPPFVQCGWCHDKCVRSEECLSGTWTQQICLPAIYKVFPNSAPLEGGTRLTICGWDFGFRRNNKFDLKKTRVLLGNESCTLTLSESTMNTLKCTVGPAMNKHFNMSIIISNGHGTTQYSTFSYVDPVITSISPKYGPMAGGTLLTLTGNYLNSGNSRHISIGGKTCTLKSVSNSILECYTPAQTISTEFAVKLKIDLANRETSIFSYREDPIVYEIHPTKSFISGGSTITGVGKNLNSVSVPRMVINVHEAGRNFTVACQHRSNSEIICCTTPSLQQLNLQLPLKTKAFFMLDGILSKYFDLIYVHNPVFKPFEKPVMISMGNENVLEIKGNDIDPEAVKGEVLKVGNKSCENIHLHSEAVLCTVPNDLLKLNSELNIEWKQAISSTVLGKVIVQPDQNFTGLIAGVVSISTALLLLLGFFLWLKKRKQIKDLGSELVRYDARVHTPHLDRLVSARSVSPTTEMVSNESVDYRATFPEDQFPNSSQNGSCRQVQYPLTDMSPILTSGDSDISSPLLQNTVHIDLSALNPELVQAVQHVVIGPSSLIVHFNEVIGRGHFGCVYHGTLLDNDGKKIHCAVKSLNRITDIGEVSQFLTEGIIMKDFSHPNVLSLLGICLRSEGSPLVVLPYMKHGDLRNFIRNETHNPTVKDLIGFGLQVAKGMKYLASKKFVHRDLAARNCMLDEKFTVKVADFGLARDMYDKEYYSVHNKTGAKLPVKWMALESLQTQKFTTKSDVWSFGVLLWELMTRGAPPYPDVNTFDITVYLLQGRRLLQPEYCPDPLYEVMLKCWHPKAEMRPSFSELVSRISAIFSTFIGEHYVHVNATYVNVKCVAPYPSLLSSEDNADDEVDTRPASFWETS

[3] = target: Dual specificity protein kinase CLK3 (Homo sapiens, UniProt P49761); assay: Selectivity interaction (KinomeScan (DiscoverX)) EUB0000666a CLK3; details: at 10 µM
Dual specificity protein kinase CLK3, sequence (P49761 whole entry, looked up, canonical isoform): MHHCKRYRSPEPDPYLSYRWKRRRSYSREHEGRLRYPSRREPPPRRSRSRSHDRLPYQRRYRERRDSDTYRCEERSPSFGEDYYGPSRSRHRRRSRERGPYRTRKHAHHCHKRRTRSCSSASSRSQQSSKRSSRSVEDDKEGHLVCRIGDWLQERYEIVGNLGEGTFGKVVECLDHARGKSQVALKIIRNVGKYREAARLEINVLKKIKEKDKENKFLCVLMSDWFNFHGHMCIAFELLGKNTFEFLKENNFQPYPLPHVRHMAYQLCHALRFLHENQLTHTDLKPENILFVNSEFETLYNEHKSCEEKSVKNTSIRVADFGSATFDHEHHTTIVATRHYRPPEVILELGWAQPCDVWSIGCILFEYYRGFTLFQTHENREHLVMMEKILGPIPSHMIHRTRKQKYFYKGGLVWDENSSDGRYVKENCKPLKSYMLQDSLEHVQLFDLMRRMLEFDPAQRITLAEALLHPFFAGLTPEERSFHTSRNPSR

[4] = target: Casein kinase I isoform delta (Homo sapiens, UniProt P48730); assay: Selectivity interaction (Upstate Kinase Profiler service (Millipore)) EUB0000056c CSNK1D; details: at 1 µM
Casein kinase I isoform delta, sequence (P48730 whole entry, looked up, canonical isoform): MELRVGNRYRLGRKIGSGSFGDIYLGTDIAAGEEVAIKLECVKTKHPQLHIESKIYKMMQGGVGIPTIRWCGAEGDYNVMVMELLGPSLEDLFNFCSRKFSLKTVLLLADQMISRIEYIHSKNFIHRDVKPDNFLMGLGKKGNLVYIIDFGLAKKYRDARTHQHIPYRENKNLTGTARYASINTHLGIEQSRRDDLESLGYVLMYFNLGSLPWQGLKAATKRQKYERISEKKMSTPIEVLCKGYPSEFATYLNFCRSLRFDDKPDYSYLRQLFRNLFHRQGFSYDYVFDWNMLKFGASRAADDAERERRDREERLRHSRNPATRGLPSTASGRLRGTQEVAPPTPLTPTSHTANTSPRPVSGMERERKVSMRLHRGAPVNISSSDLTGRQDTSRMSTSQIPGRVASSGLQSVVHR

[5] = target: Calcium/calmodulin-dependent protein kinase type II subunit delta (Homo sapiens) (UniProt Q13557); assay: Selectivity interaction (ActivX KiNativ screen (kinase selectivity in THP-1 cell lysates)) EUB0000639a CAMK2D; assay type: subcellular; details: lysate, at 1 µM
Calcium/calmodulin-dependent protein kinase type II subunit delta (Homo sapiens), sequence (Q13557 whole entry): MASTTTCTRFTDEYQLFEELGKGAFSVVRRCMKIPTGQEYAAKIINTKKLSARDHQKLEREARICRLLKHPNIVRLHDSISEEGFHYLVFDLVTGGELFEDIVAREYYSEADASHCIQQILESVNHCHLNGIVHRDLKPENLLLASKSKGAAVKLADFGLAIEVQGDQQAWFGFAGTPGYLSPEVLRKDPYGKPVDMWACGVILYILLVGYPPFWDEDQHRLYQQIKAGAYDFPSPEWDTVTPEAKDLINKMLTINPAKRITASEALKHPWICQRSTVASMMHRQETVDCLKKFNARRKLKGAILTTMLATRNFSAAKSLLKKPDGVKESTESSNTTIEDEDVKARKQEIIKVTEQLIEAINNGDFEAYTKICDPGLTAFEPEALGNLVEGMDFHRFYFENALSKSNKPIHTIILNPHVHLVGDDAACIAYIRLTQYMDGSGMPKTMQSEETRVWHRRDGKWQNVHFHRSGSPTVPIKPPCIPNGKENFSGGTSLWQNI

[6] = target: T2, Serine/threonine-protein kinase TBK1 (Homo sapiens) (UniProt Q9UHD2); assay: Selectivity interaction (Kinase panel (Invitrogen)) EUB0000639a TBK1; details: at 200 nM
T2 sequence (whole entry): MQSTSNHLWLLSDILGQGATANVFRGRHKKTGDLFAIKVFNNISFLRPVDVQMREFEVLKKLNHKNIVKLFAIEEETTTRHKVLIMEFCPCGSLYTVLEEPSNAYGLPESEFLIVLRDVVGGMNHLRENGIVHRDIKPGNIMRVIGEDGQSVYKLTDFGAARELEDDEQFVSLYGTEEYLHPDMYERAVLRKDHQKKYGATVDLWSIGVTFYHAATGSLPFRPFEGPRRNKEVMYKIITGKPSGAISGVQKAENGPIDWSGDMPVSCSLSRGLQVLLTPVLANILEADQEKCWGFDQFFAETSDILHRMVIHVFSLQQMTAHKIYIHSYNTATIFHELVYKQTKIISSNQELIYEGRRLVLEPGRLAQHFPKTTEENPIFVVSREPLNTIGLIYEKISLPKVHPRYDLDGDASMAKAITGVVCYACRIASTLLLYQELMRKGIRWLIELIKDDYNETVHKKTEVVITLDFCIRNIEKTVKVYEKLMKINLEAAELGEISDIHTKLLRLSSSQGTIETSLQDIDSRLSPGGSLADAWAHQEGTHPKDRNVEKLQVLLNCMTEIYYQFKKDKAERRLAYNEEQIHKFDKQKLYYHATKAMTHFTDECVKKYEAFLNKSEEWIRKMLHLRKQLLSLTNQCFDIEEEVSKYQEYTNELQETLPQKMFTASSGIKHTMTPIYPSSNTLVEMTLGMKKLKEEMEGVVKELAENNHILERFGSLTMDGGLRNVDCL

[7] = target: T3, Dual specificity tyrosine-phosphorylation-regulated kinase 2 (Homo sapiens) (UniProt Q92630); assay: Selectivity interaction (KinomeScan (DiscoverX)) EUB0000595a DYRK2; details: at 10 µM
T3 sequence (whole entry): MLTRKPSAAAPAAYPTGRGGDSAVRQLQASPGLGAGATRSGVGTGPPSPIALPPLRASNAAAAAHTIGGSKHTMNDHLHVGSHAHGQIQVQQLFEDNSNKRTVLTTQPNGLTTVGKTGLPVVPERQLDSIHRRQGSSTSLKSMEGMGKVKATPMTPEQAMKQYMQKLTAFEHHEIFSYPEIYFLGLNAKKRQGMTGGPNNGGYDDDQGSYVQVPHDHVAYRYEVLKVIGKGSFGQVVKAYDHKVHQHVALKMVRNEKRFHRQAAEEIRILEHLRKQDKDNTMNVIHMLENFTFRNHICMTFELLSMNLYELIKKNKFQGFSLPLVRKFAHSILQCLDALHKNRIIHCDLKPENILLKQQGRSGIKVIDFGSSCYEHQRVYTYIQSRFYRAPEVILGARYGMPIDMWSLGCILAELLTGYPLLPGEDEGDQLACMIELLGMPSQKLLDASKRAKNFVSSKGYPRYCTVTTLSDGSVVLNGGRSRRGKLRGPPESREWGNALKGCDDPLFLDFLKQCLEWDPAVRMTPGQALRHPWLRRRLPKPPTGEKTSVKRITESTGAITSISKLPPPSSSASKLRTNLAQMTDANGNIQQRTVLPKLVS

[8] = target: SRSF protein kinase 2 (Homo sapiens) (UniProt P78362); assay: Selectivity interaction (Ambit KINOMEscan and KiNATiv profiling in Jurkat cells) EUB0000090b SRPK2; assay type: cell-based; details: at 1 µM
SRSF protein kinase 2 (Homo sapiens), sequence (P78362 whole entry, looked up): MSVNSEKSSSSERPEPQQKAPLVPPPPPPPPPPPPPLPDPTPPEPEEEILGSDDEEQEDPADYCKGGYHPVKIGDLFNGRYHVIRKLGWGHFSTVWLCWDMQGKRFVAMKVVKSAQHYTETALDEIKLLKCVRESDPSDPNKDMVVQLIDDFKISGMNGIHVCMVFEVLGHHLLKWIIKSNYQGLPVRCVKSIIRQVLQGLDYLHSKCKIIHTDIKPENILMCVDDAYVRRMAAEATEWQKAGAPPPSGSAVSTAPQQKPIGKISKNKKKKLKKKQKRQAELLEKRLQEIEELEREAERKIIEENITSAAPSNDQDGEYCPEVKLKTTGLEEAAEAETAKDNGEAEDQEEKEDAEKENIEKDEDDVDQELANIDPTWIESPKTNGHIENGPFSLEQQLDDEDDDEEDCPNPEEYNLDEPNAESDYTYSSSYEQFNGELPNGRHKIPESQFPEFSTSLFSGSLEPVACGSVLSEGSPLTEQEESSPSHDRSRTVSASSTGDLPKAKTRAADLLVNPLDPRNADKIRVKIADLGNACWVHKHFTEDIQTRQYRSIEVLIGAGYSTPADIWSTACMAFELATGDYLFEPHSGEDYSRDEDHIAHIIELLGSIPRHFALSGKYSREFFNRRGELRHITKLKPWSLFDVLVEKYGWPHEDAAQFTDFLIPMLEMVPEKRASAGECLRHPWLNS

[9] = target: Fibroblast growth factor receptor 1 (Homo sapiens, UniProt P11362); assay: Selectivity interaction (KinomeScan (DiscoverX)) EUB0000655a FGFR1; details: at 10 µM
[10] = target: Serine/threonine-protein kinase tousled-like 2 (Homo sapiens) (UniProt Q86UE8); assay: Selectivity interaction (KinomeScan (DiscoverX)) EUB0000229b TLK2; details: at 10 µM
[11] = target: Casein kinase I isoform gamma-1 (Homo sapiens) (UniProt Q9HCP0); assay: Selectivity interaction (KinomeScan (DiscoverX)) EUB0000229b CSNK1G1; details: at 10 µM
Casein kinase I isoform gamma-1 (Homo sapiens), sequence (Q9HCP0 whole entry, looked up, canonical isoform): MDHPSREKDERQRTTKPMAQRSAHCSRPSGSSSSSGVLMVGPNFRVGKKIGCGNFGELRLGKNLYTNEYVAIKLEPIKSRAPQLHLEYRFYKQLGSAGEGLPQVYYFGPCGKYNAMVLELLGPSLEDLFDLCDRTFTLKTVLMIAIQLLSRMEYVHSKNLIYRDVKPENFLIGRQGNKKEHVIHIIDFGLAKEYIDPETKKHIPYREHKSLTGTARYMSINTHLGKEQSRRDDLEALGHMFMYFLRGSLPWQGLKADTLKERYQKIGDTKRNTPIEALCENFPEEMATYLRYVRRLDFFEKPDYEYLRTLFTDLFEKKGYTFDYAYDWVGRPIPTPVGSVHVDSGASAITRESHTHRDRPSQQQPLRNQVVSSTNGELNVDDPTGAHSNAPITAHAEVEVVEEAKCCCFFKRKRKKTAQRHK

[12] = target: Death-associated protein kinase 2 (Homo sapiens) (UniProt Q9UIK4); assay: Selectivity interaction (KinomeScan (DiscoverX)) EUB0000229b DAPK2; details: at 10 µM
Death-associated protein kinase 2 (Homo sapiens), sequence (Q9UIK4 whole entry, looked up): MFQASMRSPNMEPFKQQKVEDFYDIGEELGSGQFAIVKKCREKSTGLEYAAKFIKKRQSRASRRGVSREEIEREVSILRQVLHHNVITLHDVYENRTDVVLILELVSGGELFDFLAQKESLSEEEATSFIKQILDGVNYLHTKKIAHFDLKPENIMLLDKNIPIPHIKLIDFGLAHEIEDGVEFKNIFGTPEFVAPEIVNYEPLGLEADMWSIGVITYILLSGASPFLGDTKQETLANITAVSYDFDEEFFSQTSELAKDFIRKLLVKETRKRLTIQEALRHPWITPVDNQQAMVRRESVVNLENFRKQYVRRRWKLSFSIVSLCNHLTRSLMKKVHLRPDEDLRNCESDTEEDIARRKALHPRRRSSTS

[13] = target: Tyrosine-protein kinase Fer (Homo sapiens) (UniProt P16591); assay: Selectivity interaction (KinomeScan (DiscoverX)) EUB0000618a FER; details: at 10 µM
[14] = target: Phosphatidylinositol 4-phosphate 5-kinase type-1 alpha (Homo sapiens) (UniProt Q99755); assay: Selectivity interaction (KinomeScan (DiscoverX)) EUB0000618a PIP5K1A; details: at 10 µM
Phosphatidylinositol 4-phosphate 5-kinase type-1 alpha (Homo sapiens), sequence (Q99755 whole entry): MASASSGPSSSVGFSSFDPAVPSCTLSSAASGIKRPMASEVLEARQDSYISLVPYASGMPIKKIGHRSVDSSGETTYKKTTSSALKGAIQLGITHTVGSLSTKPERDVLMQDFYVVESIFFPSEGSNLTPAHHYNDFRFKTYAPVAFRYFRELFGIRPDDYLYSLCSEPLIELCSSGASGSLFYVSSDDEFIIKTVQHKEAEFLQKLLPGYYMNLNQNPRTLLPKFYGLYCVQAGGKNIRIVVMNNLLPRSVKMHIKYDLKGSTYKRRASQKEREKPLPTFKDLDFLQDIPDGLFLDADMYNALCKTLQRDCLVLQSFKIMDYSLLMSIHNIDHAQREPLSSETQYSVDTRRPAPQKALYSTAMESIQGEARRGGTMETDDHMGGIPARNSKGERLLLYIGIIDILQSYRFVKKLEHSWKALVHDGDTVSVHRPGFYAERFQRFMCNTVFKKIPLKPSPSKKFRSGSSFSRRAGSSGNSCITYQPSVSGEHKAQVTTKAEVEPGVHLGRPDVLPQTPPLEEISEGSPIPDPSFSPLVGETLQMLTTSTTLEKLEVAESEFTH

- % of control [1]: -0.395%
- % of inhibition [2]: -31.5%
Structure (SMILES): Cn1cc(-n2cnc3c(NCc4nc5cc(Cl)c(Cl)cc5[nH]4)nc(N4CCOCC4)nc32)cn1

Structure (SMILES): O=C(NOC[C@H](O)CO)c1ccc(F)c(F)c1Nc1ccc(I)cc1F
- % of control [3]: 100%

- % of inhibition [4]: -6%
Structure (SMILES): Cc1ccc(-c2ccc3c(ccc4sc5c(c43)NC[C@@H](C)NC5=O)n2)cn1

- % of inhibition [5]: 25.1%
- % of inhibition [6]: 7.67%
Structure (SMILES): CC[C@@H]1[C@H](F)C(=O)N[C@@H]1COc1nccc2cc(C(N)=O)c(OC)cc12 [ZIMLOVISERTIB]

Structure (SMILES): COCC(=O)NC/C=C/c1ccc2ncnc(Nc3ccc(Oc4ccc(C)nc4)c(C)c3)c2c1 [CP-724714]
- % of control [7]: 100%

Structure (SMILES): CN(C)C/C=C/C(=O)Nc1ccc(C(=O)N2CCCC(Nc3ncc(Cl)c(-c4c[nH]c5ccccc45)n3)C2)cc1 (centres undefined)
- % of control [8]: 98%

Structure (SMILES): CN(C)CCOc1ccc(-c2nc(-c3ccncc3)c(-c3ccc4c(c3)CC/C4=N\O)[nH]2)cc1
- % of control [9]: 99%

Structure (SMILES): COc1cc(N(C)c2ccnc3ccc(C(F)(F)F)cc23)cc(OC)c1OC
- % binding [10]: 92%
- % binding [11]: 76%
- % binding [12]: 96%

Structure (SMILES): O[C@H]1CC[C@H](Nc2ncc3nc(Nc4c(F)cc(F)cc4F)n([C@H]4CCOC4)c3n2)CC1
- % of control [13]: 100%
- % of control [14]: 93%
